Assay results from a melting point compilation (Tetko et al.).

Row | SMILES | melting point [°C]
1 | Brc1ncc(-c2ccccc2)s1 | 55 to 57
2 | Cc1noc2nc(-c3ccccc3C(F)(F)F)cc(C(=O)O)c12 | 170 to 172
3 | Cc1cc(N2CCCC2=O)ccc1S(=O)(=O)Cl | 104 to 106
4 | CC(NC(=O)CCn1cncn1)C(=O)O (configuration not stated) | 254 to 256
5 | O=C(O)c1ccc(SCCCO)cc1 | 168 to 170
6 | COC(=O)c1cccc(S(N)(=O)=O)c1 | 131 to 133
7 | O=C(O)c1cc(F)ccc1-c1ccccc1 | 117 to 119
8 | O=C(O)C1CCCCN1S(=O)(=O)c1cccs1 (configuration not stated) | 107 to 109
9 | Cn1ncc(C(=O)O)c1C1CC1 | 104 to 106
10 | Cc1c[nH]c(=O)n1-c1ccc(Cl)cc1 | 185 to 187
11 | Cc1ccc(-c2cc(C(=O)O)c3ccccc3n2)cc1 | 180 to 184
12 | CNC(=Nc1ccnn1C(C)C)c1ccco1 | 233 to 235
13 | COc1cc(C=O)ccc1OC(=O)c1cccs1 | 64 to 69
14 | COc1ccccc1NC(=O)c1ccc(NC(=O)C(C)Cl)cc1 (configuration not stated) | 149 to 151
15 | Cc1c(C(=O)O)cnn1C(C)(C)C | 132 to 134
16 | NS(=O)(=O)N1CCOCC1 | 161 to 163
17 | Cc1cccc2cc(C(=O)O)oc12 | 216 to 218
18 | O=[N+]([O-])c1cc(S(=O)(=O)N2CCCC2)ccc1Cl | 96 to 100
19 | Nc1noc(COc2ccc(F)cc2)n1 | 154 to 156

Row | SMILES | melting point [°C]
20 | CCOCCCNC(=O)CCl | 25 to 27
21 | Cc1nnnn1C(Cc1cccc(F)c1)C(=O)O (configuration not stated) | 158 to 160
22 | Cc1ccc(CCCCC(=O)O)cc1 | 75 to 77
23 | CCOc1ccc(NC(C)=O)cc1S(N)(=O)=O | 187 to 189
24 | Cc1ccccc1C(=O)NC1CCNCC1 | 129 to 131
25 | Cc1nn(C)c(=O)c(C(=O)N2CSCC2C(=O)O)c1C (configuration not stated) | 209 to 211
26 | CCOC(=O)c1cc(-c2ccccc2)ccc1N | 59 to 61
27 | COc1ccc(CC(N)=O)cc1F | 173 to 175
28 | Cc1ccc(/C=C/C(=O)O)s1 | 160 to 162
29 | Cc1cc(C)cc(-n2ncc(C=O)n2)c1 | 64 to 66
30 | O=C(O)Cn1nnc2ccccc2c1=O | 145 to 150
31 | O=C(O)c1c[nH]c(=O)cn1 | 265 to 267
32 | Nc1nnc(-c2ccc(Br)cc2)o1 | 273 to 275
33 | CCOC(=O)c1cc(N)c2c(c1)OCO2 | 68 to 70
34 | S=c1[nH]nnn1-c1ccc(Br)cc1 | 162 to 164
35 | COc1cc(C#N)cc(Cl)c1O | 141 to 143
36 | c1ccc2oc(-c3nn[nH]n3)cc2c1 | 212 to 214
37 | COC(=O)c1ncsc1S(N)(=O)=O | 155 to 157
38 | Cn1cc(C=CC(=O)O)c2ccccc21 | 139 to 141

Row | SMILES | melting point [°C]
39 | CCn1ncc(C(=O)O)c1C(F)(F)F | 136 to 138
40 | Cc1ccsc1C(=O)Nc1ccc(O)cc1 | 127 to 129
41 | Cc1cc(OCC(=O)O)ccc1Cl | 180 to 182
42 | COc1ccc(S(=O)(=O)CCC(=O)O)cc1OC | 139 to 141
43 | NC(=O)COc1ccc(O)cc1 | 154 to 156
44 | CC(=O)c1cnn(Cc2ccccc2)c1 | 61 to 63
45 | COC(=O)c1[nH]c(C)cc1N | 128 to 130
46 | Cc1csc(NC2CC2)n1 | 64 to 66
47 | CC1(C)Cc2cccc(OCC(=O)O)c2O1 | 111 to 113
48 | Sc1nnc(-c2ccccc2Br)[nH]1 | 195 to 197
49 | CCN(CC)c1ccnc(NN)n1 | 84 to 86
50 | CS(=O)(=O)Nc1cc(F)ccc1C(=O)O | 205 to 207
51 | O=Cc1cnn(-c2cccc(Cl)c2)n1 | 84 to 86
52 | CCN1C(=O)C(=O)c2cc(Br)ccc21 | 144 to 146
53 | O=C(O)c1cnn2c1CCCC2 | 214 to 216
54 | Cc1c([N+](=O)[O-])cc(C(=O)O)cc1S(=O)(=O)Cl | 176 to 178
55 | Cc1cccc(N2C(=O)NC(CCC(=O)O)C2=O)c1 (configuration not stated) | 158 to 160
56 | NC(=O)C1CCCO1 (configuration not stated) | 76 to 78
57 | Cc1nn(-c2ccc(F)cc2)c(Cl)c1C(=O)O | 253 to 255
